Assay results: the NIST ThermoML archive (doi:10.1021/acs.jced.9b00078)

Details: Liquid, Other PVT measurement

CCCCCCCCCCCCCCCC [hexadecane]
mass density [kg/m3]
Details | 10000 kPa | 20000 kPa | 30000 kPa | 40000 kPa | 50000 kPa
298.2 K | 775.86 | 782.89 | 788.75 | 793.81 | 799.18
303.2 K | 773.66 | 779.38 | 785.01 | 790.38 | 795.64
313.2 K | 764.59 | 773.09 | 778.81 | 784.36 | 789.46
323.2 K | 759.8 | 766.48 | 773.19 | 778.83 | 784.38
333.2 K | 753.38 | 760.44 | 767.3 | 773.53 | 779.1
348.2 K | 744.11 | 751.32 | 758.67 | 765.1 | 770.98
353.2 K | 740.03 | 748.27 | 755.72 | 762.19 | 768.11
373.2 K | 727.81 | 736.02 | 744.18 | 751.02 | 757.42
393.2 K | 713.25 | 723.64 | 732.3 | 739.4 | 746.41
413.2 K | 700.27 | 711.23 | 720.49 | 728.42 | 735.85
423.2 K | 694.3 | 705.01 | 714.62 | 722.88 | 730.73
433.2 K | 687.01 | 698.74 | 708.69 | 717.4 | 725.14
453.2 K | 674.02 | 686.53 | 696.77 | 706.13 | 714.59
463.2 K | 669.34 | 680.32 | 690.8 | 700.49 | 709.18
473.2 K | 660.45 | 673.95 | 685.23 | 695.19 | 704.05
